Laboratory results published in ChEMBL document CHEMBL3994601, “Polyacetylenic Oleanane-Type Triterpene Saponins from the Roots of Panax japonicus” (J Nat Prod, 2016).
Calls of active or inactive are those of the source. The calls are words filed in the database; no cut-off is given here.

Columns and labels:
PC-12 = assay: Neuroprotective activity against hydrogen peroxide-induced cell damage in rat PC12 cells assessed as increase in cell viability at 3.125 to 50 uM preincubated with compound followed by H2O2 challenge by MTT assay; assay type: functional, cell-based
VSMC = assay: Antiproliferative activity against angiotensin 2-stimulated Wistar rat VSMC after 48 hrs by MTT method; assay type: functional, cell-based

| Compound | Activity (PC-12) | growth inhibition (GI) (VSMC) |
| --- | --- | --- |
| CCCCOC(=O)[C@H]1O[C@@H](O[C@H]2CC[C@]3(C)[C@H]4CC=C5[C@@H]6CC(C)(C)CC[C@]6(C(=O)O[C@@H]6O[C@H](CO)[C@@H](O)[C@H](O)[C@H]6O)CC[C@@]5(C)[C@]4(C)CC[C@H]3C2(C)C)[C@H](O)[C@@H](O)[C@@H]1O[C@@H]1O[C@@H](CO)[C@H](O)[C@H]1O | Active |  |
| COC(=O)[C@H]1O[C@@H](O[C@H]2CC[C@]3(C)[C@H]4CC=C5[C@@H]6CC(C)(C)CC[C@]6(C(=O)O[C@@H]6O[C@H](CO)[C@@H](O)[C@H](O)[C@H]6O)CC[C@@]5(C)[C@]4(C)CC[C@H]3C2(C)C)[C@H](O)[C@@H](O)[C@@H]1O |  | Dose-dependent effect |
| CCCCOC(=O)[C@H]1O[C@@H](O[C@H]2CC[C@]3(C)[C@H]4CC=C5[C@@H]6CC(C)(C)CC[C@]6(C(=O)O)CC[C@@]5(C)[C@]4(C)CC[C@H]3C2(C)C)[C@H](O[C@@H]2O[C@H](CO)[C@@H](O)[C@H](O)[C@H]2O)[C@@H](O)[C@@H]1O | Active |  |
| C=C[C@@H](O)C#CC#CC[C@@H](O)[C@@H](CCCCCCC)OC(=O)[C@H]1O[C@@H](O[C@H]2CC[C@]3(C)[C@H]4CC=C5[C@@H]6CC(C)(C)CC[C@]6(C(=O)O)CC[C@@]5(C)[C@]4(C)CC[C@H]3C2(C)C)[C@H](O[C@@H]2O[C@H](CO)[C@@H](O)[C@H](O)[C@H]2O)[C@@H](O)[C@@H]1O | Active |  |
